In brackets after ≈: the same amount, converted by molar mass.
How the values were obtained:
[1] = Total antioxidant capacity (TAC), phosphomolybdenum method; conditions: samples at 100 µg/mL; mean ± SE, n = 3
Procedure: 1. Preparation of SB-CuO-NPs
The copper oxide nanoparticles (CuO-NPs) were biosynthesized using a concentrated anhydrous copper sulfate solution (1 mM) as a metal precursor based […]
dissolved in 100 ml of deionized water to form a 0.1 M concentration. The Schiff base (SB) was mixed with the metal solution in a ratio of 4:1. The SB-CuO-NPs was monitored by a color change. They were dried at 80 °C after centrifuging the colloidal solution at 4000 rpm for 15 min.
2. Characterization of the SB-CuO-NPs
The spectra of the SB-CuO-NPs were characterized using a Shimadzu UV-VIS recording spectrophotometer UV-240 after diluting the samples (10-fold) with deionized water at λ 200 - 800 nm. Their surface zeta potentials were measured using the laser zeta meter (Malvern Zetasizer 2000, Malvern, Worcestershire, UK) following […]
Moreover, their average hydrodynamic sizes were determined using the laser diffraction method with multiple scattering techniques employing dynamic light scattering (DLS) (Malvern Zetasizer Nano ZS, Malvern Instruments Ltd., Malvern, United Kingdom) (Murdock et al., 2008). […]
All biological activities were assessed in the prepared samples at equal concentrations (100 µg/mL). […]
After cooling to room temperature, the absorbance was measured at 695 nm against the blank. […] The antioxidant capacity was expressed as mg gallic acid equivalent per gram weight. […]

[2] = ABTS radical scavenging; conditions: mean ± SE, n = 3
Procedure: The procedure for the 2,2'-azinobis-(3-ethylbenzothiazoline-6-sulfonic acid) (ABTS) […]
solution (7 mM) and potassium persulfate solution (2.4 mM). The working solution was prepared by mixing the two stock solutions in equal quantities and allowing them to react at room temperature in a dark place for 14 hours. The solution was then diluted by mixing 1 mL of ABTS solution with 60 mL of methanol to obtain an absorbance of 0.706 ± 0.01 units at 734 nm using a spectrophotometer. Fresh ABTS solution was prepared for each assay. The tested samples (at each concentration) were allowed to react with 1 mL of the ABTS solution, and the absorbance was taken at 734 nm after 7 minutes using a spectrophotometer. […]

[3] = tested on: caspase-3 in BJ-1 cells; assay: Caspase-3 ELISA in treated BJ-1 cells; assay type: cell-based, human; conditions: BJ-1 cells treated at the IC50 value, mean ± SE, n = 3
Procedure: Following the treatment of HepG-2, Caco-2, A549, and BJ-1 cells with the SB-CuO-NPs at their respective IC50 values, as illustrated in Figure 9 and detailed in Table 5, an assessment of the activities of the caspase-3 and Bcl-2 enzymes was conducted in the treated cells. […] This mechanism ultimately triggers apoptosis. Additionally, the increased activity of caspase-3 results in a decrease in the expression of cyclin D1 and CDK-2 mRNA, thereby promoting the arrest of the G1 phase of the cell cycle. Othman et al. further noted that the biosynthesized M-NPs facilitate apoptosis by inhibiting the expression of the PI3K/AKT and Ras/Raf/ERK protein signaling pathways.
Invitrogen Corporation, following the manufacturer's instructions.

[4] = MTT cytotoxicity, BJ-1; conditions: human, BJ-1 normal fibroblast cells
[5] = tested on: normal human fibroblast (BJ-1) cell line; assay: MTT cytotoxicity, BJ-1; conditions: Homo sapiens, Fibroblast, 48 h, read-out: Median Inhibitory Concentration (IC50) BJ-1

Cc1nn(-c2ccccc2)c(Cl)c1C=NN=C1C(=O)Nc2ccccc21 [SB]
Antioxidant activity TAC [1]: 65.41 ± 0.19 mg gallic acid/g
Scavenging activity ABTS Inhib. (%) ([2]; at 100 µg/mL): 48.29 ± 0.18%
Scavenging activity ABTS IC50 [2]: 5.40 ± 0.06 µg/mL
Caspase-3 [3]: 109.07 ± 0.18 pg/mL
viability at 48 h, 31.13 μg/mL [4]: 90.9%
viability at 48 h, 62.5 μg/mL [4]: 80.9%
viability at 48 h, 125 μg/mL [4]: 62.7%
viability at 48 h, 250 μg/mL [4]: 47.2%
viability at 48 h, 500 μg/mL [4]: 19.1%
IC50 [5]: 168 ± 2.22 µg/mL (≈ 461 µM)
